Test results reported in patent US10780092B2, “Fused pyrazine derivatives useful as soluble guanylate cyclase stimulators” (Merck Sharp & Dohme Corp., priority 2016, dated 2020).

Key:
[1] = target: human recombinant sGC enzyme (Homo sapiens (Human), UniProt Q02108+Q02153); test: SEC competition binding assay with [3H] Compound B radioligand; details: displacement of 1.6 nM [3H] Compound B, 24 h at 37° C.
In short: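 Competition format: [3H] Compound B (1.6 nM) displaced from human recombinant sGC over 24 h at 37° C. in triethanolamine pH 7.4 buffer with MgCl2, BSA, DTT, 300 μM DETA/NO and 400 μM GTP (1% DMSO). Gel-filtration eluates counted by liquid scintillation; 1 μM Compound B defined non-specific binding; Ki by one-site fit.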

sGC α1/β1 heterodimer = sGC α1/β1 heterodimer (Homo sapiens (Human), UniProt Q02108+Q02153); test: Cell-based sGC functional assay (CASA assay), cGMP by HTRF; details: CHO-K1/sGC cells; for Emax: CHO-K1, cGMP production as percentage of maximum of compound A (set to 100%), read-out: % Activation; for EC50: inflection point of cGMP production, 4P fit, read-out: IP; for % Activation: cGMP production as percentage of maximum of compound A (set to 100%)
In short: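 cGMP made in CHO-K1/sGC (human α1/β1) cells is read by HTRF after compound treatment for 1 hr at 37° C, following 30 min at 25° C with or without 1 μM DETA-NO; IBMX 0.5 mM present. Values are % of standard compound maximum; 4P fit.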

| Compound | Ki [1] [nM] | Emax (sGC α1/β1 heterodimer) [%] | EC50 (sGC α1/β1 heterodimer) [nM] | % Activation (sGC α1/β1 heterodimer) [%] |
| --- | --- | --- | --- | --- |
| CC1CCC(Cc2nc(-c3nc(N)c4c(n3)NC(=O)C4(C)c3ccc(Cl)c(O)c3)cn3ccnc23)CC1 (stereo not drawn) [Example 108-AA, 4-Amino-5-(4-chloro-3-hydroxyphenyl)-5-methyl-2-{8-[(4-methylcyclo-hexyl)methyl]imidazo-[1,2-a]pyrazin-6-yl}-5,7-dihydro-6H-pyrrolo-[2,3-d]pyrimidin-6-one] | 0.924 | 118 | 198 | – |
| CC1(c2ccc(Cl)c(O)n2)C(=O)Nc2nc(-c3cn4ccnc4c(CC4CCCCC4)n3)nc(N)c21 (stereo not drawn) [Example 49-A, 4-Amino-5-(5-chloro-6-hydroxypyridin-2-yl)-2-(8-(cyclohexylmethyl)imidazo[1,2-a]pyrazin-6-yl)-5-methyl-5,7-dihydro-6H-pyrrolo[2,3-d]pyrimidin-6-one] | 0.746 | 111 | 363 | – |
| CC1(c2cccc(O)c2)C(=O)Nc2nc(-c3cn4ccnc4c(CCC4CCCCC4)n3)nc(N)c21 (stereo not drawn) [Example 83-B, 4-Amino-2-(8-(2-cyclohexylethyl)imidazo[1,2-a]pyrazin-6-yl)-5-(3-hydroxyphenyl)-5-methyl-5,7-dihydro-6H-pyrrolo[2,3-d]pyrimidin-6-one] | 5.12 | 109 | 222 | – |
| CC1(c2cc(O)c(C#N)c(Cl)c2)C(=O)Nc2nc(-c3cn4ncnc4c(CC4CCCCC4)n3)nc(N)c21 (stereo not drawn) [Example 150-A, 4-(4-amino-2-{8-(cyclohexylmethyl)-[1,2,4]triazolo[1,5-a]-pyrazin-6-yl}-5-methyl-6-oxo-6,7-dihydro-5H-pyrrolo-[2,3-d]pyrimidin-5-yl)-2-chloro-6-hydroxy-benzonitrile] | 0.989 | 96 | 4120 | – |
| CCCCc1nc(-c2nc(N)c3c(n2)NC(=O)C3(C)c2cc(O)c(Cl)c(F)c2)cn2ncnc12 (stereo not drawn) [Example 42-B, 4-Amino-2-(8-butyl-[1,2,4]triazolo[1,5-a]pyrazin-6-yl)-5-(4-chloro-3-fluoro-5-hydroxyphenyl)-5-methyl-5,7-dihydro-6H-pyrrolo[2,3-d]pyrimidin-6-one] | 0.496 | 170 | 146 | – |
| CC1(c2ccc(O)c(F)c2)C(=O)Nc2nc(-c3cn4ccnc4c(Cc4cccc(Cl)c4)n3)nc(N)c21 (stereo not drawn) [Example 126-B, 4-Amino-2-{8-[(3-chlorophenyl)methyl]-imidazo[1,2-a]pyrazin-6-yl}-5-(3-fluoro-4-hydroxy-phenyl)-5-methyl-5,7-dihydro-6H-pyrrolo-[2,3-d]pyrimidin-6-one] | 1.1 | 206 | 391 | – |
| CCCCc1nc(-c2nc(N)c3c(n2)NC(=O)C3(C)c2cc(O)c(Cl)cn2)cn2ccnc12 (stereo not drawn) [Example 72-B, 4-Amino-2-(8-butylimidazo[1,2-a]pyrazin-6-yl)-5-(5-chloro-4-hydroxypyridin-2-yl)-5-methyl-5,7-dihydro-6H-pyrrolo[2,3-d]pyrimidin-6-one] | 4.62 | 84 | 3460 | – |
| Cc1cccc(Cc2nc(-c3nc(N)c4c(n3)NC(=O)C4(C)c3ccc(O)c(F)c3)cn3ccnc23)c1 (stereo not drawn) [Example 127-B, 4-Amino-5-(3-fluoro-4-hydroxyphenyl)-5-methyl-2-{8-[(3-methylphenyl)-methyl]imidazo[1,2-a]-pyrazin-6-yl}-5,7-dihydro-6H-pyrrolo[2,3-d]-pyrimidin-6-one] | 9.72 | 118 | 9980 | – |
| CC1(c2ccc(O)c(Cl)c2)C(=O)Nc2nc(-c3cn4ncnc4c(Cc4ccc(F)cc4)n3)nc(N)c21 (stereo not drawn) [Example 66-B, 4-Amino-5-(3-chloro-4-hydroxyphenyl)-2-{8-[(4-fluorophenyl)methyl]-[1,2,4]triazolo[1,5-a]pyrazin-6-yl}-5-methyl-5,7-dihydro-6H-pyrrolo[2,3-d]pyrimidin-6-one] | 2.57 | 141 | 2150 | – |
| CC1(c2ccc(O)c(Cl)c2)C(=O)Nc2nc(-c3cn4ccnc4c(CCC4CCCCC4)n3)nc(N)c21 (stereo not drawn) [Example 77-B, 4-Amino-5-(3-chloro-4-hydroxyphenyl)-2-(8-(2-cyclohexylethyl)imidazo[1,2-a]pyrazin-6-yl)-5-methyl-5,7-dihydro-6H-pyrrolo[2,3-d]pyrimidin-6-one] | 8.79 | 99 | 645 | – |
| CC1(c2cccc(O)c2)C(=O)Nc2nc(-c3cn4ccnc4c(CCC(F)(F)C(F)(F)F)n3)nc(N)c21 (stereo not drawn) [Example 79-B, 4-Amino-5-(3-hydroxyphenyl)-5-methyl-2-(8-(3,3,4,4,4-pentafluorobutyl)imidazo[1,2-a]pyrazin-6-yl)-5,7-dihydro-6H-pyrrolo[2,3-d]pyrimidin-6-one] | 9.41 | 108 | 96 | – |
| CC1(c2ccc(Cl)c(O)c2)C(=O)Nc2nc(-c3cn4ccnc4c(Cc4cc(F)ccc4F)n3)nc(N)c21 (stereo not drawn) [Example 19-A, 4-Amino-5-(4-chloro-3-hydroxyphenyl)-2-{8-[(2,5-difluorophenyl)methyl]imidazo[1,2-a]pyrazin-6-yl}-5-methyl-5,7-dihydro-6H-pyrrolo[2,3-d]pyrimidin-6-one] | 0.17 | 152 | 78 | – |
| CC1(c2cc(O)c(C#N)c(F)c2)C(=O)Nc2nc(-c3cn4ccnc4c(Cc4cc(F)cc(F)c4F)n3)nc(N)c21 (stereo not drawn) [Example 102-B, 4-(4-Amino-5-methyl-6-oxo-2-{8-[(2,3,5-trifluorophenyl)methyl]imidazo[1,2-a]pyrazin-6-yl}-6,7-dihydro-5H-pyrro1o[2,3-d]pyrimidin-5-yl)-2-fluoro-6-hydroxybenzonitrile] | 0.118 | 73 | 382 | – |
| CC(C)CCc1nc(-c2nc(N)c3c(n2)NC(=O)C3(C)c2ccc(O)cc2)cn2ccnc12 (stereo not drawn) [Example 58-B, 4-Amino-5-(4-hydroxyphenyl)-2-(8-isopentylimidazo[1,2-a]pyrazin-6-yl)-5-methyl-5,7-dihydro-6H-pyrrolo[2,3-d]pyrimidin-6-one] | 1.54 | 121 | 164 | – |

Other lines, results leading:

| Ki [1] [nM] | Emax (sGC α1/β1 heterodimer) [%] | EC50 (sGC α1/β1 heterodimer) [nM] | % Activation (sGC α1/β1 heterodimer) [%] | Compound |
| --- | --- | --- | --- | --- |
| 2.2 | 121 | 600 | – | CC1(c2ccc(Cl)c(O)c2)C(=O)Nc2nc(-c3cn4ccnc4c(CCC4CCCCC4)n3)nc(N)c21 (stereo not drawn) [Example 63-A, 4-Amino-5-(4-chloro-3-hydroxyphenyl)-2-(8-(2-cyclohexylethyl)imidazo[1,2-a]pyrazin-6-yl)-5-methyl-5,7-dihydro-6H-pyrrolo[2,3-d]pyrimidin-6-one] |
| 9.24 | – | 3380 | 48 | CC1(c2ccc(Cl)c(O)c2)C(=O)Nc2nc(-c3cn4ncnc4c(CCC(F)(F)C(F)(F)F)n3)nc(NCC(O)C(F)(F)F)c21 (single isomer, unassigned) [Example 133-AB, 5-(4-Chloro-3-hydroxy-phenyl)-5-methyl-2-(8-(3,3,4,4,4-pentafluoro-butyl)-[1,2,4]triazolo-[1,5-a]pyrazin-6-yl)-4-[(3,3,3-trifluoro-2-hydroxypropyl)amino]-5,7-dihydro-6H-pyrrolo-[2,3-d]pyrimidin-6-one] |
| 0.261 | 105 | 242 | – | CC1(c2cc(O)c(Cl)cn2)C(=O)Nc2nc(-c3cn4ncnc4c(Cc4ccccc4F)n3)nc(N)c21 (stereo not drawn) [Example 148-B, 4-amino-5-(5-chloro-4-hydroxypyridin-2-yl)-2-{8-(2-fluorobenzyl)-[1,2,4]triazolo[1,5-a]-pyrazin-6-yl}-5-methyl-5,7-dihydro-6H-pyrrolo-[2,3-c]pyrimidin-6-one] |
| 1.92 | 138 | 4380 | – | CC1(c2ccc(O)c(Cl)c2)C(=O)Nc2nc(-c3cn4ccnc4c(Cc4ccc(F)cc4)n3)nc(N)c21 (stereo not drawn) [Example 60-B, 4-Amino-5-(3-chloro-4-hydroxyphenyl)-2-{8-[(4-fluorophenyl)methyl]imidazo[1,2-a]pyrazin-6-yl]-5-methyl-5,7-dihydro-6H-pyrrolo[2,3-d]pyrimidin-6-one] |
| 1.57 | 66 | 511 | – | CC1(c2ccc(Cl)c(O)c2)C(=O)Nc2nc(-c3cn4ccnc4c(Cc4ccc(F)cc4)n3)nc(N3CCC(F)(F)CC3)c21 (stereo not drawn) [Example 136-A, 5-(4-Chloro-3-hydroxy-phenyl)-4-(4,4-difluoro-piperidin-1-yl)-2-{8-[(4-fluorophenyl)methyl]-imidazo[1,2-a]pyrazin-6-yl}-5-methyl-5,7-dihydro-6H-pyrrolo[2,3-d]-pyrimidin-6-one] |
| 0.524 | – | 210 | 127 | CC1CCC(Cc2nc(-c3nc(N)c4c(n3)NC(=O)C4(C)c3ccc(Cl)c(O)c3)cn3ccnc23)CC1 (stereo not drawn) [Example 108-AB, 4-Amino-5-(4-chloro-3-hydroxyphenyl)-5-methyl-2-{8-[(4-methylcyclohexyl)methyl]imidazo[1,2-a]pyrazin-6-yl}-5,7-dihydro-6H-pyrrolo[2,3-d]pyrimidin-6-one] |
| 0.333 | 91 | 2680 | – | CC1(c2cc(O)c(C#N)c(Cl)c2)C(=O)Nc2nc(-c3cn4ccnc4c(Cc4cccc(F)c4)n3)nc(N)c21 (stereo not drawn) [Example 144-A, 4-(4-amino-2-{8-(3-fluorobenzyl)imidazo-[1,2-a]pyrazin-6-yl}-5-methyl-6-oxo-6,7-dihydro-5H-pyrrolo-[2,3-d]pyrimidin-5-yl)-2-chloro-6-hydroxy-benzonitrile] |
